Measurements reported in PubChem BioAssay AID2060495 (Molecular Pharmacology Branch, DTP, NCI, 2025).

System: 521955-158-R2-J5-PDC complex spheroid viability
Assay: Anticancer human tumor 521955-158-R2-J5-PDC patient-derived pancreatic carcinoma cell line growth inhibition [GQUAD]
Conditions: for IC50: curve of first compound; for viability, T/C: stronger effect = lower value; active = viability on the fitted dose curve at most 10% of control; inactive = the rest
Summary of the method: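 Viability of tumor cells grown as complex spheroids with endothelial and stromal cells, exposed to drug combinations. Top concentration at or near clinical Cmax (else 10 microM), diluted in half-log increments.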

[1] = second compound 0.0316 µM, first compound 0.0316 µM
[2] = second compound 0.0316 µM, first compound 0.1 µM
[3] = second compound 0.0316 µM, first compound 0.316 µM
[4] = second compound 0.0316 µM, first compound 1 µM
[5] = second compound 0.0316 µM, first compound 3.16 µM
[6] = second compound 0.0316 µM, first compound 10 µM
[7] = second compound 0.1 µM, first compound 0.0316 µM
[8] = second compound 0.1 µM, first compound 0.1 µM
[9] = second compound 0.1 µM, first compound 0.316 µM
[10] = second compound 0.1 µM, first compound 1 µM
[11] = second compound 0.1 µM, first compound 3.16 µM
[12] = second compound 0.1 µM, first compound 10 µM
[13] = second compound 0.316 µM, first compound 0.0316 µM
[14] = second compound 0.316 µM, first compound 0.1 µM
[15] = second compound 0.316 µM, first compound 0.316 µM
[16] = second compound 0.316 µM, first compound 1 µM
[17] = second compound 0.316 µM, first compound 3.16 µM
[18] = second compound 0.316 µM, first compound 10 µM
[19] = second compound 1 µM, first compound 0.0316 µM
[20] = second compound 1 µM, first compound 0.1 µM
[21] = second compound 1 µM, first compound 0.316 µM
[22] = second compound 1 µM, first compound 1 µM
[23] = second compound 1 µM, first compound 3.16 µM
[24] = second compound 1 µM, first compound 10 µM
[25] = second compound 3.16 µM, first compound 0.0316 µM
[26] = second compound 3.16 µM, first compound 0.1 µM
[27] = second compound 3.16 µM, first compound 0.316 µM
[28] = second compound 3.16 µM, first compound 1 µM
[29] = second compound 3.16 µM, first compound 3.16 µM
[30] = second compound 3.16 µM, first compound 10 µM
[31] = second compound 10 µM, first compound 0.0316 µM
[32] = second compound 10 µM, first compound 0.1 µM
[33] = second compound 10 µM, first compound 0.316 µM
[34] = second compound 10 µM, first compound 1 µM
[35] = second compound 10 µM, first compound 3.16 µM
[36] = second compound 10 µM, first compound 10 µM
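Also: spheroids exposed to agents for one week before reading.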
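For viability, T/C in this document: 100% = DMSO vehicle control viability.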

C=CCn1c(=O)c2cnc(Nc3ccc(N4CCN(C)CC4)cc3)nc2n1-c1cccc(C(C)(C)O)n1 + Cc1cnc(CNC(=O)c2c(=O)c3ccc(N4CCCN(C)CC4)nc3n3c2sc2ccccc23)cn1
< 0.0316 µM: IC50 (second compound 0.316 µM) | IC50 (second compound 1 µM) | IC50 (second compound 3.16 µM) | IC50 (second compound 10 µM)
0.0771 µM: IC50 (second compound 0.0316 µM)
inactive: viability, T/C [1] 67% | viability, T/C [2] 44.9% | viability, T/C [3] 19.5% | viability, T/C [4] 10% | viability, T/C [7] 53.5% | viability, T/C [8] 56% | viability, T/C [9] 30.3% | viability, T/C [10] 17.6% | viability, T/C [11] 13.1% | viability, T/C [12] 11.6% | viability, T/C [13] 35.1% | viability, T/C [14] 45.4% | viability, T/C [15] 28.4% | viability, T/C [16] 20.1% | viability, T/C [17] 15.9% | viability, T/C [18] 11.2% | viability, T/C [19] 17.4% | viability, T/C [20] 19.6% | viability, T/C [21] 21.1% | viability, T/C [22] 17.7% | viability, T/C [23] 14.3% | viability, T/C [24] 10.1% | viability, T/C [25] 13.3% | viability, T/C [26] 16.3% | viability, T/C [27] 17.8% | viability, T/C [28] 11.6% | viability, T/C [31] 11.6% | viability, T/C [32] 15% | viability, T/C [33] 15.4%
0.124 µM: IC50 (second compound 0.1 µM)
active: viability, T/C [5] 7.12% | viability, T/C [6] 11.2% | viability, T/C [29] 11.7% | viability, T/C [30] 2.19% | viability, T/C [34] 8.4% | viability, T/C [35] 0.28% | viability, T/C [36] 0.23%

COc1ncnc(C2CC2)c1-c1ncc2cnn(Cc3ccc(-c4nc(C(F)(F)F)cn4C(C)C)cc3)c2n1 + Cc1cnc(CNC(=O)c2c(=O)c3ccc(N4CCCN(C)CC4)nc3n3c2sc2ccccc23)cn1
< 0.0316 µM: IC50 (second compound 0.316 µM) | IC50 (second compound 1 µM) | IC50 (second compound 3.16 µM) | IC50 (second compound 10 µM)
inactive: viability, T/C [1] 92.4% | viability, T/C [2] 73.3% | viability, T/C [3] 96.7% | viability, T/C [4] 71.9% | viability, T/C [5] 94.3% | viability, T/C [6] 85.5% | viability, T/C [7] 58% | viability, T/C [8] 58.6% | viability, T/C [9] 53.1% | viability, T/C [10] 55.9% | viability, T/C [11] 57.2% | viability, T/C [12] 55.2% | viability, T/C [13] 30.3% | viability, T/C [14] 31.6% | viability, T/C [15] 31.4% | viability, T/C [16] 31.5% | viability, T/C [17] 28.1% | viability, T/C [18] 25.6% | viability, T/C [19] 19.3% | viability, T/C [20] 17.7% | viability, T/C [21] 17% | viability, T/C [22] 17.4% | viability, T/C [23] 18.8% | viability, T/C [24] 16.6% | viability, T/C [25] 14.5% | viability, T/C [26] 14.3% | viability, T/C [27] 16.4% | viability, T/C [28] 13.2% | viability, T/C [29] 13.7% | viability, T/C [30] 12.8% | viability, T/C [31] 13% | viability, T/C [32] 11.2% | viability, T/C [33] 9.95%
> 10 µM: IC50 (second compound 0.0316 µM) | IC50 (second compound 0.1 µM)
active: viability, T/C [34] 13.9% | viability, T/C [35] 6.73% | viability, T/C [36] 6.37%

Cc1[nH]c2ccccc2c1CCNCc1ccc(/C=C/C(=O)NO)cc1 + Cc1cnc(CNC(=O)c2c(=O)c3ccc(N4CCCN(C)CC4)nc3n3c2sc2ccccc23)cn1
0.0351 µM: IC50 (second compound 0.1 µM)
inactive: viability, T/C (second compound 0.0316 µM, first compound 0.000999 µM) 76.2% | viability, T/C (second compound 0.0316 µM, first compound 0.00316 µM) 66.1% | viability, T/C (second compound 0.0316 µM, first compound 0.00999 µM) 92.3% | viability, T/C [1] 75.6% | viability, T/C (second compound 0.0316 µM, first compound 0.0999 µM) 39.2% | viability, T/C (second compound 0.1 µM, first compound 0.000999 µM) 64.7% | viability, T/C (second compound 0.1 µM, first compound 0.00316 µM) 57.7% | viability, T/C (second compound 0.1 µM, first compound 0.00999 µM) 57.1% | viability, T/C [7] 54% | viability, T/C (second compound 0.1 µM, first compound 0.0999 µM) 33.2% | viability, T/C (second compound 0.316 µM, first compound 0.000999 µM) 26.8% | viability, T/C (second compound 0.316 µM, first compound 0.00316 µM) 31.2% | viability, T/C (second compound 0.316 µM, first compound 0.00999 µM) 34% | viability, T/C [13] 37.1% | viability, T/C (second compound 0.316 µM, first compound 0.0999 µM) 26.6% | viability, T/C [15] 1.88% | viability, T/C (second compound 1 µM, first compound 0.000999 µM) 16.8% | viability, T/C (second compound 1 µM, first compound 0.00316 µM) 21.2% | viability, T/C (second compound 1 µM, first compound 0.00999 µM) 18.5% | viability, T/C [19] 20.1% | viability, T/C (second compound 1 µM, first compound 0.0999 µM) 18.6% | viability, T/C (second compound 3.16 µM, first compound 0.000999 µM) 12.1% | viability, T/C (second compound 3.16 µM, first compound 0.00316 µM) 14.4% | viability, T/C (second compound 3.16 µM, first compound 0.00999 µM) 14.7% | viability, T/C (second compound 10 µM, first compound 0.000999 µM) 9.65% | viability, T/C (second compound 10 µM, first compound 0.00316 µM) 11.8% | viability, T/C (second compound 10 µM, first compound 0.00999 µM) 14.8%
active: viability, T/C [3] 5.94% | viability, T/C [9] 2.12% | viability, T/C [21] 0.1% | viability, T/C [25] 13.9% | viability, T/C (second compound 3.16 µM, first compound 0.0999 µM) 6.38% | viability, T/C [27] 0.11% | viability, T/C [31] 13.8% | viability, T/C (second compound 10 µM, first compound 0.0999 µM) 5.03% | viability, T/C [33] 0.18%
< 0.000999 µM: IC50 (second compound 0.316 µM) | IC50 (second compound 1 µM) | IC50 (second compound 3.16 µM) | IC50 (second compound 10 µM)
0.0713 µM: IC50 (second compound 0.0316 µM)
